Laboratory results taken from a compilation of properties of binary mixtures (doi:10.1021/acs.jced.8b00334).

Experiment: xn = mol fraction of the nth substance listed
Conditions: 101.3 kPa

CCC[N+](C)(C)C.O=S(=O)([N-]S(=O)(=O)C(F)(F)F)C(F)(F)F + CCC[N+]1(C)CCCC1.O=S(=O)([N-]S(=O)(=O)C(F)(F)F)C(F)(F)F
viscosity [mPa·s]
Conditions	x1 = 0.2	x1 = 0.4	x1 = 0.6	x1 = 0.8	x1 = 1
283.15 K	129	–	–	160	–
288.15 K	101	104	–	121	–
293.15 K	78	–	88	94	102
298.15 K	63	65	70	74	79
303.15 K	51	52	56	–	63
308.15 K	–	43.1	–	48.3	51
313.15 K	35.2	35.9	–	39.9	42
318.15 K	29.8	30.3	32.1	–	35
323.15 K	25.5	25.8	27.3	–	–
328.15 K	–	–	23.4	–	25.2
333.15 K	–	–	–	20.9	–
338.15 K	16.8	16.9	17.7	18.2	18.8
343.15 K	14.8	–	15.6	16	16.5
348.15 K	13.2	–	13.8	14.2	14.6
353.15 K	–	11.9	–	12.6	12.9

CCC[N+]1(C)CCCCC1.O=S(=O)([N-]S(=O)(=O)C(F)(F)F)C(F)(F)F + CCC[N+](C)(C)C.O=S(=O)([N-]S(=O)(=O)C(F)(F)F)C(F)(F)F
x2 = 0
Conditions	viscosity [mPa·s]
283.15 K	397
288.15 K	277
308.15 K	87
318.15 K	55
323.15 K	45.1
328.15 K	37.3
333.15 K	31.4
348.15 K	19.8
353.15 K	17.3

CCCCC[N+](CC)(CC)CC.O=S(=O)([N-]S(=O)(=O)C(F)(F)F)C(F)(F)F + CCCCC[P+](CC)(CC)CC.O=S(=O)([N-]S(=O)(=O)C(F)(F)F)C(F)(F)F
viscosity [mPa·s]
Conditions	x1 = 0.2	x1 = 0.4	x1 = 0.6	x1 = 0.8	x1 = 1
283.15 K	229	266	316	386	479
288.15 K	168	192	225	270	329
293.15 K	126	143	165	194	233
298.15 K	97	108	–	144	169
303.15 K	75	84	94	109	–
308.15 K	60	66	74	84	96
313.15 K	48.3	53	58	66	75
318.15 K	–	42.9	47.2	53	60
323.15 K	32.7	35.4	38.6	42.9	48
328.15 K	27.4	29.5	32.1	35.4	39.3
333.15 K	23.2	24.9	26.9	29.5	32.6
338.15 K	19.9	21.2	–	24.9	27.4
343.15 K	17.2	18.3	19.6	21.3	–
348.15 K	15	15.9	16.9	–	19.9
353.15 K	–	13.9	14.8	15.9	–

CCC[N+](C)(C)C.O=S(=O)([N-]S(=O)(=O)C(F)(F)F)C(F)(F)F + CCC[N+]1(C)CCCCC1.O=S(=O)([N-]S(=O)(=O)C(F)(F)F)C(F)(F)F
viscosity [mPa·s]
Conditions	x1 = 0.2	x1 = 0.4	x1 = 0.6	x1 = 0.8	x1 = 1
283.15 K	340	292	–	–	179
288.15 K	240	209	180	149	133
293.15 K	175	154	–	–	102
298.15 K	131	117	103	88	79
303.15 K	101	90	80	70	63
308.15 K	78	–	–	56	51
313.15 K	62	57	51	–	42
318.15 K	51	–	–	38	35
323.15 K	41.5	38.4	35.2	31.8	29.5
328.15 K	34.6	32.1	29.6	27	25.2
333.15 K	29.1	27.2	25.3	23.2	21.7
338.15 K	24.8	23.3	21.7	20	18.8
343.15 K	21.4	–	18.9	–	16.5
348.15 K	18.6	17.6	16.5	–	–
353.15 K	16.3	15.4	14.6	13.6	12.9

CCCCC[P+](CC)(CC)CC.O=S(=O)([N-]S(=O)(=O)C(F)(F)F)C(F)(F)F + CCCCC[N+](CC)(CC)CC.O=S(=O)([N-]S(=O)(=O)C(F)(F)F)C(F)(F)F
x2 = 0
Conditions	viscosity [mPa·s]
288.15 K	150
293.15 K	113
298.15 K	87
303.15 K	69
308.15 K	55
313.15 K	44.5
318.15 K	36.6
328.15 K	25.6
333.15 K	21.8
338.15 K	18.7
343.15 K	16.2
348.15 K	14.2
353.15 K	12.5

CCC[N+]1(C)CCCC1.O=S(=O)([N-]S(=O)(=O)C(F)(F)F)C(F)(F)F + CCC[N+](C)(C)C.O=S(=O)([N-]S(=O)(=O)C(F)(F)F)C(F)(F)F
x2 = 0
Conditions	viscosity [mPa·s]
283.15 K	126
288.15 K	97
293.15 K	76
303.15 K	50
308.15 K	41.1
313.15 K	34.4
318.15 K	29.2
323.15 K	25
328.15 K	21.6
333.15 K	18.8
338.15 K	16.6
343.15 K	14.7
348.15 K	13.1
353.15 K	11.7
